The target of one data set is D2 receptor (Homo sapiens, UniProt P14416). In words: Serotonin and dopamine receptor binding: D2.
For another data set, the target named is 5-HT2A receptor (Homo sapiens, UniProt P28223). Description: Serotonin and dopamine receptor binding: 5-HT2A.
For a further data set, the target named is T1, 5-HT2C receptor (Homo sapiens, UniProt P28335).
T1 sequence (P28335 33-458): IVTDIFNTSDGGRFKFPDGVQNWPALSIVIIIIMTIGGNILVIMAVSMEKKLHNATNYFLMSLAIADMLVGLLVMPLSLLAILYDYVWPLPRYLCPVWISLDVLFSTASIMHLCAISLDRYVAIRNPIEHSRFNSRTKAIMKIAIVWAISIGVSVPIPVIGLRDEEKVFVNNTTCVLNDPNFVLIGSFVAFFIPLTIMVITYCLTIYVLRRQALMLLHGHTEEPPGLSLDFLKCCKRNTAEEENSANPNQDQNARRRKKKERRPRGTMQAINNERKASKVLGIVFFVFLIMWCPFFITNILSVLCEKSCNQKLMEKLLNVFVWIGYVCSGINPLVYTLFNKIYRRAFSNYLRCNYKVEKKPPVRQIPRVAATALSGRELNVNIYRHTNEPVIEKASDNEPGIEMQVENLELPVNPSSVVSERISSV
Description: Serotonin and dopamine receptor binding: 5-HT2C.

For data set [1], the system named is rats. Description: Amphetamine-induced sensorimotor gating deficits (prepulse inhibition, PPI). Type of data set: in vivo. The settings on record: 1 mg/kg ip, amphetamine 3 mg/kg ip, 120 dB pulse, 71 dB pre-pulse, p<0.01. As to the method:
Effects of compound 2 on amphetamine-induced sensorimotor gating deficits (FIG. 4 Table). Once the compound 2 dose range was determined by motor assessments, a separate group of rats were used to study PPI. Rats were treated with vehicle (75% DMSO) or DDD-016 in the DMSO vehicle; 30 min later amphetamine (3 mg/kg ip) or saline was administered, and the startle session was initiated after an additional 30 min. (The 3 mg/kg dose of amphetamine is sufficient to induced robust deficits in PPI; 1 mg/kg is subtrheshold; data not shown.) Shown are startle data from a 120 dB pulse, preceded 100 ms by a 71 dB pre-pulse.

Data set [2] has as its system rats. Description: Pilot dose-selection study (catalepsy, locomotion). The format is in vivo.
For data set [3], the system named is rats. Description: Amphetamine-induced motor activity. Type of data set: in vivo. As to the method:
Effects of compound 2 on amphetamine-induced motor activity (FIG. 4 Graph). All rats were habituated to the motor box for 30 min followed by injection of compound 2 or vehicle. After 30 min all rats were injected with 1 mg/kg, i.p. amphetamine (a dose that is known to elevate locomotion in rats) and their motor activity was recorded for 2 hr.

Chain of D2 receptor (P14416 whole entry): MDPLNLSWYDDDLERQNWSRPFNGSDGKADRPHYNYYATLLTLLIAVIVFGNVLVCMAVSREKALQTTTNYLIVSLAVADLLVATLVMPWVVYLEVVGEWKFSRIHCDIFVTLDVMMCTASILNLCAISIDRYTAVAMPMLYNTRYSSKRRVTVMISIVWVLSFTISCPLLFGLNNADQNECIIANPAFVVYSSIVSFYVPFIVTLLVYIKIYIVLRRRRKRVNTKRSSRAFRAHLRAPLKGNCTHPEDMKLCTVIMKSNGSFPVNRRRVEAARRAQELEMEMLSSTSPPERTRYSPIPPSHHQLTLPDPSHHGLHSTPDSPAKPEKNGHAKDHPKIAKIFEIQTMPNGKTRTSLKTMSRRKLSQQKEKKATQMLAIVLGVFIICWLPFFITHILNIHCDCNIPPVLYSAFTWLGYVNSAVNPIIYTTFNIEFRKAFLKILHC
Chain of 5-HT2A receptor (P28223 whole entry): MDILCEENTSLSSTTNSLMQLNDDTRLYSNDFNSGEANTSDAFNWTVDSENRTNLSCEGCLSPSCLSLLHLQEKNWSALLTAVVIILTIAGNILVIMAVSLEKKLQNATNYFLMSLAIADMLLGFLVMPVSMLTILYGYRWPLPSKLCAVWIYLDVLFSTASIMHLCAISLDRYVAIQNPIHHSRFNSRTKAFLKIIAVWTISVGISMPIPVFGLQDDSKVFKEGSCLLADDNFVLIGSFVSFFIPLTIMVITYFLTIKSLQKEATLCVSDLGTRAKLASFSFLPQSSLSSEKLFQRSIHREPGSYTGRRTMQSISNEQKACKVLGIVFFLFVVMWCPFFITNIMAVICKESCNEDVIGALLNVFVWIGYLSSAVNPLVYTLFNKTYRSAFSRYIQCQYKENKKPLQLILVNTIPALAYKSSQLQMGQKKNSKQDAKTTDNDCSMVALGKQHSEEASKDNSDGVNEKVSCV

In the case of `CN1CC[C@H]2[C@@H](C1)c1cccc3c1N2c1ccccc1CS3` [Compound 3], the IC50 (in general, the concentration that gives 50% inhibition) stood at 500 nM at D2 receptor, 5 nM at 5-HT2A receptor and 15 nM at 5-HT2C receptor.
The like results for `CN1CCc2c(c3cccc4c3n2-c2ccccc2CO4)C1` [Compound 9] were, in that order, 500 nM, 8 nM and 50 nM.
Taken in the same sequence, the figures for `O=C(CCCN1CCc2c(c3cccc4c3n2-c2ccccc2CS4)C1)c1ccc(F)cc1` [Compound 6] were 8 nM, 5 nM and 80 nM.
For `CN1CCc2c(c3cccc4c3n2-c2ccccc2CS4)C1` [Compound 2], the IC50 at D2 receptor was determined as 80 nM; on 5-HT2A receptor, 1 nM; on 5-HT2C receptor it was 10 nM. The “effect on amphetamine-induced % PPI deficit” value in the data set with rats [1] is reported as “blunted this deficit”. The locomotor effect entry in the data set on rats [2] (3 mg/kg, vs vehicle (75% DMSO)) is recorded as “did not differentiate from vehicle”; with rats [2] (10 mg/kg), “Some locomotor reduction”. The catalepsy result with rats [2] (30 mg/kg ip, without a loss of right reflex) is listed as “robust catalepsy”. The “horizontal activity, comparison of doses” value with rats [3] (3 mg/kg vs 10 mg/kg, ANOVA with post hoc Newman Keuls, p<0.05) was “difference between 3 mg/kg and 10 mg/kg”. Moreover, in the data set with rats [3] (10 mg/kg, 30 min before 1 mg/kg i.p. amphetamine, activity recorded 2 hr), the “effect on amphetamine-induced motor activity” value is “trend for 10 mg/kg of 2 to reduce the effects of amphetamine”.
Turning to `CN1CC[C@@H]2[C@@H](C1)c1cccc3c1N2c1ccccc1CS3` [Compound 4], the IC50 at D2 receptor came to 20 nM; at 5-HT2A receptor it was 3 nM; on 5-HT2C receptor it was 5 nM. Also, the “receptor binding activity (in words)” value on 5-HT2A receptor (stated jointly for 5-HT2A, 5-HT2C and D2 receptors) was “most potent amongst all”.

(Values after patent publication US8367655B2, “Pyridoindolobenzox—and thiazepine derivatives and uses thereof” (Daya Drug Discoveries, Inc., priority 2009, dated 2013).)
